From ChEMBL document CHEMBL6177993, “De Novo 3-(Phenylcarbamoyl) Benzoate Analogues: Efficacy against Multidrug-Resistant S. aureus and Elucidation of the Biodistribution Profile” (J Med Chem, 2025)
Values after ≈ are worked out from the molar mass of the structure shown. Active and inactive are the calls of the source. No cut-off for these calls is given here.

How the values were obtained:
Staphylococcus aureus [1] = experiment: Antibacterial activity against Staphylococcus aureus assessed as reduction in bacterial growth; type: functional
Bacillus subtilis = experiment: Antibacterial activity against Bacillus subtilis IITKSM1 assessed as reduction in bacterial growth measured after 18 to 24 hrs by broth microdilution method; type: functional; settings: time 18-24 hrs
Enterococcus faecalis = experiment: Antibacterial activity against Enterococcus faecalis ATCC 35550 assessed as reduction in bacterial growth measured after 18 to 24 hrs by broth microdilution method; type: functional; settings: time 18-24 hrs
Acinetobacter baumannii = experiment: Antibacterial activity against Acinetobacter baumannii BAA 1605 assessed as reduction in bacterial growth measured after 18 to 24 hrs by broth microdilution method; type: functional; settings: time 18-24 hrs
Staphylococcus aureus [2] = experiment: Antibacterial activity against Staphylococcus aureus ATCC 29213 assessed as reduction in bacterial growth measured after 18 to 24 hrs by broth microdilution method; type: functional; settings: time 18-24 hrs
Klebsiella pneumoniae = experiment: Antibacterial activity against Klebsiella pneumoniae BAA 1705 assessed as reduction in bacterial growth measured after 18 to 24 hrs by broth microdilution method; type: functional; settings: time 18-24 hrs
Pseudomonas aeruginosa = experiment: Antibacterial activity against Pseudomonas aeruginosa ATCC 27853 assessed as reduction in bacterial growth measured after 18 to 24 hrs by broth microdilution method; type: functional; settings: time 18-24 hrs
Escherichia coli = experiment: Antibacterial activity against Escherichia coli ATCC 25922 assessed as reduction in bacterial growth measured after 18 to 24 hrs by broth microdilution method; type: functional; settings: time 18-24 hrs
Staphylococcus aureus [3] = experiment: Antibacterial activity against vacomycin-resistant Staphylococcus aureus VRS 1 assessed as reduction in bacterial growth measured after 18 to 24 hrs by broth microdilution method; type: functional; settings: time 18-24 hrs
Staphylococcus aureus [4] = experiment: Bactericidal activity against Staphylococcus aureus ATCC 29213 at 4 to 8 time MIC measured after 8 hrs by time-kill assay; type: functional, organism-based
Staphylococcus aureus [5] = experiment: Antibacterial activity against vacomycin-resistant Staphylococcus aureus VRS 12 assessed as reduction in bacterial growth measured after 18 to 24 hrs by broth microdilution method; type: functional; settings: time 18-24 hrs
Staphylococcus aureus [6] = experiment: Antibacterial activity against vacomycin-resistant Staphylococcus aureus VRS 4 assessed as reduction in bacterial growth measured after 18 to 24 hrs by broth microdilution method; type: functional; settings: time 18-24 hrs

| Structure (SMILES) | MIC (Staphylococcus aureus [1]) [µg/mL] | MIC (Bacillus subtilis) [µg/mL] | MIC (Enterococcus faecalis) [µg/mL] | MIC (Acinetobacter baumannii) [µg/mL] | MIC (Staphylococcus aureus [2]) [µg/mL] | MIC (Klebsiella pneumoniae) [µg/mL] | MIC (Pseudomonas aeruginosa) [µg/mL] | MIC (Escherichia coli) [µg/mL] | MIC (Staphylococcus aureus [3]) [µg/mL] | Activity (Staphylococcus aureus [4]) | MIC (Staphylococcus aureus [5]) [µg/mL] | MIC (Staphylococcus aureus [6]) [µg/mL] |
| --- | --- | --- | --- | --- | --- | --- | --- | --- | --- | --- | --- | --- |
| NCCCC[C@H](N)C(=O)N[C@@H](Cc1ccccc1)CN(CC(=O)NCC12CC3CC(CC(C3)C1)C2)C(=O)CC12CC3CC(CC(C3)C1)C2 | 1.56 (≈ 2.36 µM) |  |  |  |  |  |  |  |  |  |  |  |
| N=C(N)NCCC[C@H](NC(=O)[C@H](CCCNC(=N)N)NC(=O)[C@H](CCCNC(=N)N)NC(=O)Cn1cc(COc2ccccc2-c2ccc(-c3ccc(-c4ccccc4OCc4cn(CC(=O)N[C@@H](CCCNC(=N)N)C(=O)N[C@@H](CCCNC(=N)N)C(=O)N[C@@H](CCCNC(=N)N)C(N)=O)nn4)cc3)cc2)nn1)C(N)=O | 6.05 (≈ 3.9 µM) |  |  |  |  |  |  |  |  |  |  |  |
| CC(c1ccccc1)c1cc(C(C)(C)C)cc(C(C)c2ccccc2)c1NC(=O)c1cccc(C(=O)O)c1 (stereo not drawn) |  | > 64 | > 64 | > 64 | > 64 | > 64 | > 64 | > 64 |  |  |  |  |
| Cc1cc(C(c2ccccc2)c2ccccc2)c(NC(=O)c2cccc(C(=O)O)c2)c(C(c2ccccc2)c2ccccc2)c1 |  | 64 (≈ 109 µM) | 64 (≈ 109 µM) | > 64 | 4 (≈ 6.81 µM) | > 64 | > 64 | > 64 |  |  |  |  |
| COc1ccc2c(c[n+]3c4c2ccc2c5c(cc(c24)CC3)OCO5)c1NC(=O)c1csnn1.[Cl-] | 2 |  |  |  |  |  |  |  |  |  |  |  |
| O=C(O)c1cccc(C(=O)Nc2c(C(c3ccccc3)c3ccccc3)cc(OC(F)F)cc2C(c2ccccc2)c2ccccc2)c1 |  | 1 (≈ 1.56 µM) | 2 (≈ 3.13 µM) | > 64 | 4 (≈ 6.25 µM) | > 64 | > 64 | > 64 |  |  |  |  |
| CCCCc1cc(C(c2ccccc2)c2ccccc2)c(NC(=O)c2cccc(C(=O)O)c2)c(C(c2ccccc2)c2ccccc2)c1 |  | 8 (≈ 12.7 µM) | 2 (≈ 3.18 µM) | > 64 | 16 (≈ 25.4 µM) | > 64 | > 64 | > 64 |  |  |  |  |
| O=C(O)c1cccc(C(=O)Nc2c(C(c3ccccc3)c3ccccc3)cc(OC(F)(F)F)cc2C(c2ccccc2)c2ccccc2)c1 |  | 2 (≈ 3.04 µM) | 2 (≈ 3.04 µM) | > 64 | 2 (≈ 3.04 µM) | > 64 | > 64 | > 64 |  |  |  |  |
| CN[C@H](CC(C)C)C(=O)N[C@H]1C(=O)N[C@@H](CC(N)=O)C(=O)N[C@H]2C(=O)N[C@H]3C(=O)N[C@H](C(=O)N[C@H](C(=O)O)c4cc(O)cc(O)c4-c4cc3ccc4O)[C@H](O)c3ccc(c(Cl)c3)Oc3cc2cc(c3O[C@@H]2O[C@H](CO)[C@@H](O)[C@H](O)[C@H]2O[C@H]2C[C@](C)(N)[C@H](O)[C@H](C)O2)Oc2ccc(cc2Cl)[C@H]1O [VANCOMYCIN] |  |  |  |  |  |  |  |  | > 64 | Active | > 64 | > 64 |
| CCOc1cc(C(c2ccccc2)c2ccccc2)c(NC(=O)c2cccc(C(=O)O)c2)c(C(c2ccccc2)c2ccccc2)c1 |  | 1 (≈ 1.62 µM) | 64 (≈ 104 µM) | > 64 | 64 (≈ 104 µM) | > 64 | > 64 | > 64 |  |  |  |  |
| CC(c1ccccc1)c1cc(Cl)cc(C(C)c2ccccc2)c1NC(=O)c1cccc(C(=O)O)c1 (stereo not drawn) |  | > 64 | > 64 | > 64 | > 64 | > 64 | > 64 | > 64 |  |  |  |  |
| O=C(O)c1cccc(C(=O)Nc2c(C(c3ccccc3)c3ccccc3)cc([N+](=O)[O-])cc2C(c2ccccc2)c2ccccc2)c1 |  | 4 (≈ 6.47 µM) | 8 (≈ 12.9 µM) | > 64 | 4 (≈ 6.47 µM) | > 64 | > 64 | > 64 |  |  |  |  |
